From ChEMBL document CHEMBL1147291, “Bioactive compounds from the root of Myrsine africana” (J Nat Prod, 1989)
Converted amounts (≈) assume the structure as drawn.

Assays:
HT-29 = assay: Cytotoxicity against human HT-29 cells; type: functional; conditions: read-out: ED50 (the source's name)
[1] = Cytotoxicity against human KBMRI cells; type: functional; conditions: read-out: ED50 (the source's name)
A549 = assay: Cytotoxicity against human A549 cells; type: functional; conditions: read-out: ED50 (the source's name)
Artemia = assay: Toxicity in brine shrimp; type: organism-based; conditions: in vivo
[2] = test system: Agrobacterium tumefaciens; assay: Antitumor activity against Agrobacterium tumefaciens-induced crown gall tumors in potato tubers by potato disk test; type: functional
P388 = assay: In vivo cytotoxicity against mouse P388 cells relative to control; type: functional

Compound	EC50 (HT-29) [mg/L]	EC50 [1] [mg/L]	EC50 (A549) [mg/L]	LC50 (Artemia) [ppm]	inhibition (INH) [2] [%]	T/C (P388) [%]
Cc1cc2c(c(O)c1O)C(=O)c1c(O)cccc1C2=O	2.8 (≈ 10.4 µM)	5.7 (≈ 21.1 µM)	3.1 (≈ 11.5 µM)	–	–	–
COc1cc(O)c2c(c1)COC2=O	28 (≈ 155 µM)	> 100	> 100	> 1000	–	–
Cc1cc(O)c2c(c1)C(=O)c1cc(O)cc(O)c1C2=O [EMODIN]	> 10	6 (≈ 22.2 µM)	4.2 (≈ 15.5 µM)	35	40	127
CC(=O)c1c(C)cc2cccc(O)c2c1O [NEPODIN]	36.7 (≈ 170 µM)	36.7 (≈ 170 µM)	31 (≈ 143 µM)	105	–	–
